Reference: ChEMBL document CHEMBL1126373, “HIV and reverse transcriptase inhibition by tannins” (Bioorg Med Chem Lett, 1992)

How the values were obtained:
[1] = tested on: Human immunodeficiency virus 1; experiment: Anti-HIV activity in cell culture assay expressed as EC50 values.; assay type: functional, organism-based; details: Human immunodeficiency virus 1
[2] = tested on: Human immunodeficiency virus 1; experiment: Therapeutic index was determined; details: read-out: Therapeutic index
[3] = molecular target: Human immunodeficiency virus type 1 reverse transcriptase (Human immunodeficiency virus 1) (UniProt Q72547); experiment: Inhibition against HIV- reverse transcriptase in cell culture at 20 ug/mL
[4] = tested on: Human immunodeficiency virus 1; experiment: Inhibition against HIV replication in cell culture at 20 ug/mL; assay type: functional; details: Human immunodeficiency virus 1
[5] = tested on: Human immunodeficiency virus 1; experiment: Anti-HIV activity in cell culture assay expressed as IC50 values.; assay type: functional, organism-based

Compound	EC50 [1]	selectivity ratio [2]	inhibition [3]	inhibition at 20 µg/mL [4]	IC50 ([5]; Human immunodeficiency virus 1)	IC50 [5]
O=C1OCC2OC(=O)c3cc(O)c(O)c(O)c3-c3c(O)c(O)c(O)c4c3C(=O)OC(C2OC(=O)c2cc(O)c(O)c(O)c2-c2c1cc(O)c(O)c2O)C1OC(=O)c2c-4c(O)c(O)c(O)c2[C@@H]1O (stereo partly specified)	15 µM	1	40%	90%	15 µM	
Oc1cc(O)c2c(c1)O[C@H](c1ccc(O)c(O)c1)[C@H](O)[C@H]2c1c(O)cc(O)c2c1O[C@H](c1ccc(O)c(O)c1)[C@H](O)C2 [PROCYANIDIN B2]	> 25 µM		21%	40%	> 25 µM	
O=C1c2c(O)cc(O)cc2O[C@H](c2ccc(O)c(O)c2)[C@H]1O [(+)-TAXIFOLIN]	45 µM	1	22%	40%	45 µM	
O=C1O[C@H]2[C@@H]3OC(=O)c4cc(O)c(O)c(O)c4-c4c(cc(O)c(O)c4O)C(=O)OC[C@H]2O[C@@H](OC(=O)c2cc(O)c(O)c(O)c2)[C@@H]3OC(=O)c2cc(O)c(O)c3c2[C@@H]2C1=CC(=O)C(O)(O)C2(O)O3 (stereo partly specified)	12 µM	1.2	15%	92%	14 µM	
O=C(OC[C@H]1OC(O)[C@@](O)(COC(=O)c2cc(O)c(O)c(O)c2)[C@@H]1O)c1cc(O)c(O)c(O)c1 (stereo partly specified) [HAMAMELITANNIN]	50 µM	0.9	16%	40%	45 µM	
O=C(OC[C@H]1O[C@@H](OC(=O)c2cc(O)c(O)c(O)c2)[C@H](OC(=O)c2cc(O)c(O)c(O)c2)[C@@H](OC(=O)c2cc(O)c(O)c(O)c2)[C@@H]1OC(=O)c1cc(O)c(O)c(O)c1)c1cc(O)c(O)c(O)c1 (stereo in doubt; 10)			2%			
O=C1OCC2OC(=O)c3cc(O)c(O)c(O)c3-c3c(O)c(O)c(O)c4c3C(=O)OC(C2OC(=O)c2cc(O)c(O)c(O)c2-c2c1cc(O)c(O)c2O)C1OC(=O)c2c-4c(O)c(O)c(O)c2[C@H]1O (stereo partly specified)	16 µM	0.9	45%	90%	15 µM	
O=C(O)C1=C[C@@H](O)[C@@H](O)[C@H](OC(=O)c2cc(O)c(O)c(O)c2)C1	18 µM	1.4	0%	90%	25 µM	
O=C(OC[C@@H]1O[C@@H](OC(=O)c2cc(O)c(O)c(O)c2)[C@@H](OC(=O)c2cc(O)c(O)c(O)c2)[C@@H](OC(=O)c2cc(O)c(O)c(O)c2)[C@@H]1OC(=O)c1cc(O)c(O)c(O)c1Oc1cc2c(c(O)c1O)-c1c(cc(O)c(O)c1O)C(=O)OC[C@@H]1O[C@@H](OC(=O)c3cc(O)c(O)c(O)c3)[C@@H](OC(=O)c3cc(O)c(O)c(O)c3)[C@@H](OC(=O)c3cc(O)c(O)c(O)c3)[C@@H]1OC2=O)c1cc(O)c(O)c(O)c1	12 µM	3.3	0%	50%	39 µM	
O=C(O[C@H]1[C@H](O)C[C@](O)(C(=O)O)C[C@H]1O)c1cc(O)c(O)c(O)c1	> 100 µM	< 0.8	0%	0%	80 µM	
Oc1cc(O)c2c(c1)O[C@@]1(c3ccc(O)c(O)c3)Oc3cc(O)c4c(c3[C@@H]2[C@H]1O)O[C@H](c1ccc(O)c(O)c1)[C@H](O)[C@H]4c1c(O)cc(O)c2c1O[C@H](c1ccc(O)c(O)c1)[C@H](O)C2 [CINNAMTANNIN B1]	21 µM	> 1.2	13%	90%	> 25 µM	
O=C(O[C@@H]1Cc2c(O)cc(O)cc2O[C@@H]1c1ccc(O)c(O)c1)c1cc(O)c(O)c(O)c1 [EPICATECHIN GALLATE]	> 25 µM		5%	40%	> 25 µM	
O=C(O[C@@H]1[C@@H](c2c(O)cc(O)c3c2O[C@H](c2ccc(O)c(O)c2)[C@H](OC(=O)c2cc(O)c(O)c(O)c2)C3)c2c(O)cc(O)c([C@H]3c4c(O)cc(O)cc4O[C@H](c4ccc(O)c(O)c4)[C@@H]3OC(=O)c3cc(O)c(O)c(O)c3)c2O[C@@H]1c1ccc(O)c(O)c1)c1cc(O)c(O)c(O)c1	17 µM	> 1.5	13%	47%	> 25 µM	
Oc1cc(O)c2c(c1)O[C@H](c1ccc(O)c(O)c1)[C@H](O)[C@H]2c1c(O)cc(O)c2c1O[C@H](c1ccc(O)c(O)c1)[C@H](O)[C@H]2c1c(O)cc(O)c2c1O[C@H](c1ccc(O)c(O)c1)[C@H](O)C2 [PROCYANIDIN C1]	> 25 µM	> 1	18%	68%	> 25 µM	
CC1(C)CC[C@]2(C(=O)O)CC[C@]3(C)C(=CCC4[C@@]5(C)C[C@@H](O)[C@@H]6OC(=O)c7cc(O)c(O)c(O)c7-c7c(cc(O)c(O)c7O)C(=O)OC[C@@]6(CO)C5CC[C@]43C)C2C1 (stereo partly specified)	40 µM	1	18%	23%	40 µM	
O=C(O[C@@H]1O[C@@H]2COC(=O)c3cc(O)c(O)c(O)c3-c3c(cc(O)c(O)c3O)C(=O)O[C@H]([C@H]1OC(=O)c1cc(O)c(O)c(O)c1)[C@@H]2OC(=O)c1cc(O)c(O)c(O)c1)c1cc(O)c(O)c(O)c1 [PUNICAFOLIN]	19 µM	1.8	0%	60%	34 µM	
CC1(C)CC[C@]2(C(=O)O[C@@H]3O[C@H](CO)[C@@H](O)[C@H](O)[C@H]3O)CC[C@]3(C)C(=CCC4[C@@]5(C)C[C@@H](O)[C@@H]6OC(=O)c7cc(O)c(O)c(O)c7-c7c(cc(O)c(O)c7O)C(=O)OC[C@@]6(CO)C5CC[C@]43C)C2C1 (stereo partly specified)	18 µM	1.6	17%	47%	28 µM	
Oc1cc(O)c2c(c1)O[C@H](c1ccc(O)c(O)c1)[C@H](O)[C@H]2c1c(O)cc(O)c2c1O[C@@]1(c3ccc(O)c(O)c3)Oc3cc(O)c4c(c3[C@@H]2[C@H]1O)O[C@H](c1ccc(O)c(O)c1)[C@H](O)[C@H]4c1c(O)cc(O)c2c1O[C@H](c1ccc(O)c(O)c1)[C@H](O)C2 [CINNAMTANNIN B2]	15 µM	> 1.7	19%	73%	> 25 µM	
O=C(O[C@@H]1[C@@H](c2c(O)cc(O)c3c2O[C@H](c2ccc(O)c(O)c2)[C@H](OC(=O)c2cc(O)c(O)c(O)c2)C3)c2c(O)cc(O)cc2O[C@@H]1c1ccc(O)c(O)c1)c1cc(O)c(O)c(O)c1	14 µM		0%	90%	> 25 µM	
O=C1O[C@H]2[C@H](O)[C@@H](OC(=O)c3cc(O)c(O)c4c3[C@@H]3C1=CC(=O)C(O)(O)C3(O)O4)[C@H](OC(=O)c1cc(O)c(O)c(O)c1)O[C@@H]2CO (stereo partly specified) [FUROSIN]	50 µM	1.4	38%	33%	70 µM	
O=C1OCC2OC(=O)c3cc(O)c(O)c(O)c3-c3c(O)c(O)c(O)c4c3C(=O)OC(C2OC(=O)c2cc(O)c(O)c(O)c2-c2c1cc(O)c(O)c2O)C1OC(=O)C2C4=C(O)C(=O)C23Oc2cc(O)c4c(c2[C@H]13)O[C@H](c1ccc(O)c(O)c1)[C@@H](O)C4 (stereo partly specified)	4 µM	3.8	23%	89%	15 µM	
O=C(O[C@H]1[C@H](O)C[C@](OC(=O)c2cc(O)c(O)c(O)c2)(C(=O)O)C[C@H]1O)c1cc(O)c(O)c(O)c1	25 µM	1.8	0%	65%	45 µM	
O=C(O)C1=C[C@@H](O)[C@@H](O)[C@H](OC(=O)c2cc(O)c(O)c(OC(=O)c3cc(O)c(O)c(O)c3)c2)C1	30 µM	1.3	31%	60%	40 µM	
O=C(OC[C@H]1OC(O)[C@@](O)(COC(=O)c2cc(O)c(O)c(O)c2)[C@@H]1OC(=O)c1cc(O)c(O)c(O)c1)c1cc(O)c(O)c(O)c1 (stereo partly specified)	45 µM	0.9	25%	30%	40 µM	
O=C(/C=C/c1ccc(O)c2c1[C@H](C(=O)O[C@H](Cc1ccc(O)c(O)c1)C(=O)O)[C@@H](c1ccc(O)c(O)c1)O2)O[C@H](Cc1ccc(O)c(O)c1)C(=O)O [MAGNESIUM LITHOSPERMATE B]	> 25 µM		18%	35%	> 25 µM	
O=C1OCC2OC(=O)c3cc(O)c(O)c(O)c3-c3c(O)c(O)c(O)c4c3C(=O)OC(C2OC(=O)c2cc(O)c(O)c(O)c2-c2c1cc(O)c(O)c2O)C1OC(=O)c2c-4c(O)c(O)c(O)c2[C@@H]1c1c(O)cc(O)c2c1O[C@H](c1ccc(O)c(O)c1)[C@@H](O)C2 (stereo partly specified)	4 µM	3.8	24%	88%	15 µM	
Oc1cc(O)c2c(c1)O[C@@]1(c3ccc(O)c(O)c3)Oc3cc(O)c4c(c3[C@@H]2[C@H]1O)O[C@H](c1ccc(O)c(O)c1)[C@H](O)C4 [PROANTHOCYANIDIN A2]	> 25 µM		18%	30%	> 25 µM	
O=C(OC[C@H]1O[C@@H](OC(=O)c2cc(O)c(O)c(O)c2)[C@H](OC(=O)c2cc(O)c(O)c(O)c2)[C@@H](OC(=O)c2cc(O)c(O)c(O)c2)[C@@H]1OC(=O)c1cc(O)c(O)c(O)c1)c1cc(O)c(O)c(O)c1 (stereo in doubt; 11)			0%			
O=C(OC[C@H]1O[C@@H](OC(=O)c2cc(O)c(O)c(O)c2)[C@H](OC(=O)c2cc(O)c(O)c(O)c2)[C@@H](OC(=O)c2cc(O)c(O)c(O)c2)[C@@H]1OC(=O)c1cc(O)c(O)c(O)c1)c1cc(O)c(O)c(O)c1 (stereo in doubt; 11) [PENTAGALLOYL GLUCOSE]	18 µM	2.5		65%		45 µM
